The test system of series [1] is CAMP gene. Kind of series: Fold induction assay in the MN8CampLuc reporter cell line (luciferase coupled to CAMP gene). The format is cell-based, human. The conditions noted are these: for Fold induction (as luciferase activity): cells pre-differentiated by treatment with galactose, FIG. 4 and FIG. 5. How it is done:
MN8CampLuc cells were handled according to Nylen et. al. with the following exception when predifferention of cells were performed before induction: […]

Series [2] has as its system autophagy-related genes Beclin-1 and AtgS. Kind of series: RT-PCR of autophagy marker genes in HEK-293 cells. The series is classed as cell-based. The conditions noted are these: for Expression of autophagy-related genes Beclin-1 and AtgS: 24 hrs, PBA 2 mM, compound 5 10 μM, Rapamycin 100 nM, FIG. 9 upper panel. How it is done:
(§1) RT-PCR experiments for expression of marker genes for autophagy in HEK-293 cells were measured by real-time PCR. Data were normalized by the expression of the 18s rRNA housekeeping gene. For the immunofluorescence spectroscopy experiments HEK-293 cells were fixed after treatment with the inducers or control. The cells were then stained with DAPI to visualize the nuclei (blue), and immunolabeled with the anti-LC3, followed by the addition of Alexa-fluor 488 (green). Scale bar=10 μm.

For series [3], the system named is CAMP gene. Kind of series: RT-PCR of CAMP gene expression in parental HT-29 cell line. The series is classed as cell-based, human. How it is done: RT-PCR experiments were performed according to Nylen et. al. (Nylén F, Miraglia E, Cederlund A, Ottosson H, Stromberg R, Gudmundsson G H, Agerberth B. 2013. Boosting innate immunity: Development and validation of a cell-based screening assay to identify LL-37 inducers. Innate Immun.).

The test system of a further series is histone deacetylases. The conditions noted are these: average of assays reported in PubChem, FIG. 4 right panel; cited from earlier work.
Another series deals with LC3. Briefly: Immunofluorescence of LC3 in HEK-293 cells. The format is cell-based. The conditions noted are these: 10 μM, 24 hrs, FIG. 9 lower panel. The protocol:
as §1

The mark [4] stands for this setting: MN8CampLuc reporter cell line, FIG. 2.
[5] abbreviates: MN8CampLuc reporter cell line, FIG. 6.

“Also recorded” adds a separate entry of the source. Where two headings read alike, the source gives them in different places.

For the compound `COc1ccc(CNc2ccccc2N)cc1` [Compound 16, N-(4-Methoxybenzyl)-1,2-benzenediamine], in the series with CAMP gene [1] (MN8CampLuc), the “Fold induction (as luciferase activity)” value was “at a cost of inducing ability”.

As for `O=C(NCc1ccc(C(=O)O)cc1)OCc1cccnc1` [Compound 11, 4-((((pyridin-3-ylmethoxy)carbonyl)amino)methyl)benzoic acid], in the series on CAMP gene [1] (setting [4]), the “Fold induction of the CAMP gene (LL-37-luciferase)” value (shortened to “Fold induction … (LL-37-luciferase)”) is “virtually no induction; also recorded: complete inactivity”.

On to `CN(C)c1ccc(NC(=O)CCCC(=O)Nc2ccccc2N)cc1` [Compound 9, N^1-(2-aminophenyl)-N^5-(4-(dimethylamino)-phenyl)glutaramide], for which the “Fold induction … (LL-37-luciferase)” value in the series with CAMP gene [1] (setting [4]) is given as “at a cost of inducing ability”.

For `O=C(Nc1ccccc1O)c1ccccc1` [Compound 14, N-(2-Hydroxyphenyl) benzamide], the “Fold induction … (LL-37-luciferase)” value with CAMP gene [1] (setting [4]) was “virtually no induction; also recorded: complete or significant loss of the induction ability”.

Turning to `COc1ccc(C(=O)NCCN)cc1` [Compound 18, N-(2-aminoethyl)-4-methoxybenzamide], the “Fold induction (as luciferase activity)” value with CAMP gene [1] (MN8CampLuc) is listed as “abolition of induction; also recorded: complete or significant loss of the induction ability”.

For `COc1ccccc1NC(=O)c1ccccc1` [Compound 15, N-(2-methoxyphenyl)benzamide], in the series on CAMP gene [1] (setting [4]), the “Fold induction … (LL-37-luciferase)” value is given as “virtually no induction; also recorded: complete or significant loss of the induction ability”.

With `COC(=O)Cn1cc(C(=O)NCc2ccc(C(=O)Nc3ccccc3N)cc2)nn1` [Compound 6, Methyl 2-(4-((4-((2-aminophenyl)carbamoyl)benzyl)carbamoyl)-1 H-1,2,3-triazol-1-yl)acetate], the “Concentration required for induction” value in the series on CAMP gene [1] (MN8CampLuc, FIG. 2) is reported as “slightly higher concentration”.

In the case of `Nc1ccccc1NC(=O)c1ccc(CNC(=O)OCc2ccccc2)cc1` [Compound 4, Benzyl (4-((2-aminophenyl)carbamoyl)-benzyl)carbamate], in the series with CAMP gene [1] (MN8CampLuc, FIG. 2), the “Concentration required for induction” value is “slightly higher concentration”.

With Phenylbutyrate [Compound 13], in series [2], the “Expression of autophagy-related genes Beclin-1 and AtgS” value is “increased expression”. For the same compound, the “CAMP gene expression (mRNA), course over time” value in the series on CAMP gene [3] (HT-29 cells, FIG. 8) is “gradual increase of the CAMP gene expression”. The “Fold induction … (LL-37-luciferase)” value in the series on CAMP gene [1] was “considerably lower induction”.

As for `Nc1ccccc1NC(=O)c1ccccc1` [Compound 1, N-(2-Aminophenyl)benzamide], the “Concentration required for induction” value in the series on CAMP gene [1] (MN8CampLuc, FIG. 2) was “slightly higher concentration”.

With `NCCNC(=O)c1ccccc1` [Compound 17, N-(2-aminoethyl)-benzamide], the “Fold induction (as luciferase activity)” value with CAMP gene [1] (MN8CampLuc) is on record as “abolition of induction; also recorded: complete or significant loss of the induction ability”.

Regarding `O=C(CCCCCCC(=O)Nc1ccccc1)NO` [Compound 12, N1-hydroxy-N8-phenyloctanediamide], in the series with CAMP gene [1] (MN8CampLuc), the “Fold induction (as luciferase activity)” value is reported as “much less fold induction than compound 5”. Also, in the series on CAMP gene [1] (MN8CampLuc, with and without pre-differentiation of cells by galactose, FIG. 3), the “Fold induction of the CAMP gene” value is reported as “little induction; also recorded: poor inducer”.

For the compound `COc1ccc(C(=O)Nc2ccccc2N)cc1` [Compound 2, N-(2-Aminophenyl)-4-methoxybenzamide], the “Concentration required for induction” value with CAMP gene [1] (MN8CampLuc, FIG. 2) is “slightly higher concentration”.

`CC(/C=C/C(=O)NO)=C\[C@@H](C)C(=O)c1ccc(N(C)C)cc1` [Compound 19, Trichostatin A]: in the series with histone deacetylases, the “HDAC inhibition (known IC50 values) compared with compound 5” value is on record as “considerably more powerful HDAC inhibitors”. Also, the “Fold induction (as luciferase activity)” value in the series with CAMP gene [1] (MN8CampLuc) is reported as “much less fold induction than compound 5”.

As to `Nc1ccccc1NC(=O)c1ccc(CNC(=O)OCc2cccnc2)cc1` [Compound 5, Pyridin-3-ylmethyl (4-((2-aminophenyl)-carbamoyl)benzyl)carbamate], the “Expression of autophagy-related genes Beclin-1 and AtgS” value in series [2] was “increased expression”. For the same compound, in series [2] (listed as Entinostat), the “Expression of autophagy-related genes Beclin-1 and AtgS” value is listed as “upregulate the expression”. Further, the Autophagy entry in series [2] (marker genes and LC-3, FIG. 9) is given as “induce autophagy; also recorded: stimulates autophagy”. Moreover, in the series on CAMP gene [3] (HT29 parental cells, FIG. 7), the “Induction of the CAMP gene at mRNA level (RT-PCR)” value is listed as “induces the CAMP gene; also recorded: enhanced transcription of the CAMP gene” and the “Induction of the CAMP gene at mRNA level in combination with Vitamin D” value is listed as “synergy with Vitamin D; also recorded: synergism with Vitamin D”. For the same compound, the “CAMP gene expression (mRNA), time course” value with CAMP gene [3] (HT-29 cells, 4 and 8 h, FIG. 8) is “did not induce”. For the same compound, the “CAMP gene expression (mRNA), time course” value in the series with CAMP gene [3] (HT-29 cells, 24 and 48 h, FIG. 8) was “induction was prominent”. In the series with LC3, the “LC3 expression in its membrane form (LC3-II)” value is reported as “upregulate”. Moreover, in the series with CAMP gene [1] (setting [5]), the “Induction in combination with VitD” value is recorded as “synergistic effect; also recorded: Synergism with Vitamin D” and the “Induction on co-incubation with PBA (13)” value is “reduces entinostat-elicited induction”. Also, the “Inducing concentration lower than that of PBA” value in the series with CAMP gene [1] (MN8CampLuc, 0.625-5 μM vs PBA 2-4 mM) is given as “about 3 orders of magnitude”. The “Concentration required for induction” value in the series with CAMP gene [1] (MN8CampLuc, FIG. 2) is “lowest concentration; also recorded: effective already at μM concentrations”. In the series with CAMP gene [1] (MN8CampLuc, compound 5 at 0.625-5 μM, FIG. 2), the “Induction compared with PBA (13) at 2-4 mM” value is “considerably higher”.

(Values after patent US9957226B2, “Antimicrobial compounds” (AKTHELIA PHARMACEUTICALS, priority 2013, dated 2018).)
